In assay [1] the test system is Green Peach Aphid (Myzus persicae). The experiment in a line: Green peach aphid (Myzus persicae) mortality on dipped pepper plants. In kind it is in vivo. The conditions noted are these: 120 h, pepper leaves dipped, aphid mortality after 5 days, read-out: mortality in comparison with untreated controls. The method, then: II. Green Peach Aphid (Myzus persicae)
Pepper plants in the 2nd leaf-pair stage (variety ‘California Wonder’) are infested with approximately 40 laboratory-reared aphids by placing infested leaf sections on top of the test plants. The leaf sections are removed after 24 hours. The leaves of the intact plants are dipped into gradient solutions of the test compound. Aphid mortality on the treated plants, relative to mortality on check plants, is determined after 5 days.

The subject of assay [2] is Cotton Aphid (Aphis gossypii). The experiment in a line: Cotton aphid (Aphis gossypii) mortality on dipped cotton plants. It counts as in vivo. Particulars: 120 h, cotton cotyledons dipped, aphid mortality after 5 days, read-out: mortality in comparison with untreated controls. The method, then: I. Cotton Aphid (Aphis gossypii)
Cotton plants in the cotyledon stage (variety ‘Delta Pine’) are infested with approximately 100 laboratory-reared aphids by placing infested leaf sections on top of the test plants. The leaf sections are removed after 24 hours. The cotyledons of the intact plants are dipped into gradient solutions of the test compound. Aphid mortality on the treated plants, relative to mortality on check plants, is determined after 5 days.

Data on three compounds can be found in US7989394B2, “Substituted 1-(azolin-2-yl)-amino-2-aryl-1-hetaryl-ethane compounds” (BASF SE, priority 2006, dated 2011).

As for `Cc1cc(C)cc(CC(NC2=NCCS2)c2cccs2)c1` (racemic) [Example 22, (4,5-Dihydro-thiazol-2-yl)-[2-(3,5-dimethyl-phenyl)-1-thien-2-yl-ethyl]-amine], the mortality at 300 ppm in assay [1] and in assay [2] was > 70% each time.

Consider `Cc1cc(C)cc(CC(NC2=NCCS2)c2ccco2)c1` (racemic) [Example 23, (4,5-Dihydro-thiazol-2-yl)-[2-(3,5-dimethyl-phenyl)-1-furan-2-yl-ethyl]-amine], for which the mortality at 300 ppm in assay [1] and in assay [2] was > 70% in each case.

For `Cc1cc(C)cc(CC(NC(=S)NCCO)c2cccs2)c1` (racemic) [Example 6, 1-[2-(3,5-Dimethyl-phenyl)-1-thien-2-yl-ethyl]-3-(2-hydroxy-ethyl)-thiourea], the mortality at 300 ppm in assay [1] and in assay [2] was > 70% throughout.
